Measured values: BigSolDB 2.1

O=C1c2ccccc2-c2ccccc21
solubility (mole fraction)
Details | 278.15 K | 283.15 K | 288.15 K | 293.15 K | 298.15 K | 303.15 K | 308.15 K | 313.15 K | 318.15 K
in DMSO | 0.0418 | 0.0609 | 0.0728 | 0.0855 | 0.112 | 0.142 | 0.178 | 0.216 | 0.306
in acetonitrile | 0.0209 | 0.0311 | 0.0481 | 0.0657 | 0.102 | 0.134 | 0.201 | 0.281 | 0.358
in ethanol | 0.0127 | 0.014 | 0.0164 | 0.0222 | 0.0267 | 0.0307 | 0.0428 | 0.0506 | 0.0693
in ethyl acetate | 0.105 | 0.137 | 0.142 | 0.172 | 0.225 | 0.243 | 0.284 | 0.35 | 0.371
in ethyl formate | 0.0907 | 0.111 | 0.14 | 0.163 | 0.22 | 0.25 | 0.32 | 0.366 | 0.409
in isobutanol | 0.0156 | 0.0207 | 0.0241 | 0.0305 | 0.0387 | 0.0504 | 0.0622 | 0.0745 | 0.0963
in isopropanol | 0.0087 | 0.0119 | 0.0152 | 0.0217 | 0.0273 | 0.0384 | 0.0472 | 0.0592 | 0.0801
in methanol | 0.0037 | 0.0044 | 0.0059 | 0.0084 | 0.012 | 0.0154 | 0.0199 | 0.0288 | 0.0401
in n-butanol | 0.0119 | 0.0142 | 0.0182 | 0.0286 | 0.0371 | 0.0461 | 0.0631 | 0.0826 | 0.113
in n-hexane | 0.0038 | 0.0047 | 0.0054 | 0.007 | 0.0097 | 0.0132 | 0.0169 | 0.0227 | 0.0304
in n-propanol | 0.0143 | 0.0169 | 0.0214 | 0.0294 | 0.0381 | 0.0482 | 0.0653 | 0.083 | 0.0997
